Source: patent US12384771B2, “Pleuromutilin derivative containing thiazole-pyridine benzyl quaternary ammonium salt side chain and preparation method and use thereof” (SHAANXI UNIVERSITY OF SCIENCE AND TECHNOLOGY, priority 2022, dated 2025)
Where a name gives a salt, the structure may show the parent alone.

Columns and labels:
Assay in all cases: MIC, clinical drug-resistant bacteria
Assay type in all cases: cell-based
[1] = system: carbapenem-resistant Acinetobacter baumannii (CR-AB) 18-184; details: CR-AB 18-184, read-out: Minimum inhibitory concentration against clinical drug-resistant bacteria
Description: (§1) The minimum inhibitory concentration (MIC) of the pleuromutilin derivative containing thiazole-pyridine benzyl quaternary ammonium salt side chain was tested with moxifloxacin as a positive control (purchased from Shanghai Macklin Biochemical Technology Co., Ltd.) using a microbroth dilution method. At the same time, the pleuromutilin derivative containing thiazole-pyridine benzyl quaternary ammonium salt side chain of the invention was compared with the marketed pleuromutilin antibiotics, such as retapamulin (purchased from Nanjing Chemlin Chemical Industry Co., Ltd.), tiamulin (purchased from Shanghai Yuanye Bio-Technology Co., Ltd) and valnemulin (purchased from Shanghai Acmec Biochemical Co., Ltd), in order to screen out pleuromutilin derivatives with better activity.
(§2) Clinical resistant bacteria include multidrug-resistant Pseudomonas aeruginosa (MDR-PA) 18-993, 18-756 and 18-126, multidrug-resistant Klebsiella pneumoniae (MDR-KP) 18-893, 18-754 and 18-1482, methicillin-resistant Staphylococcus aureus (MRSA) 18-171, 18-209 and 18-575, vancomycin-resistant Enterococcus faecalis (VRE) 18-94, 18-80 and 18-507, and carbapenem-resistant Acinetobacter baumannii (CR-AB) 18-184, 18-560 and 18-882, all the clinical drug-resistant strains were from Huashan Hospital, Fudan University.

[2] = system: multidrug-resistant Pseudomonas aeruginosa (MDR-PA) 18-993; details: MDR-PA 18-993, read-out: Minimum inhibitory concentration against clinical drug-resistant bacteria
Description: as §1, §2

[3] = system: methicillin-resistant Staphylococcus aureus (MRSA) 18-575; details: MRSA 18-575, read-out: Minimum inhibitory concentration against clinical drug-resistant bacteria
Description: as §1, §2

[4] = system: vancomycin-resistant Enterococcus faecalis (VRE) 18-507; details: VRE 18-507; read-out: Minimum inhibitory concentration against clinical drug-resistant bacteria
Description: as §1, §2

C=C[C@]1(C)C[C@@H](OC(=O)CSc2nc(-c3cc[n+](Cc4ccc([N+](=O)[O-])cc4)cc3)cs2)[C@]2(C)[C@H](C)CC[C@]3(CCC(=O)[C@H]32)[C@@H](C)[C@@H]1O [Compound 7, 1-(4-(nitro)benzyl)-4-(2-(8-hydroxy-4,7,9,12-tetramethyl-3-oxo-7-vinyldecahydro-4,9a-propancyclopent[8]cyclen-5-yl)oxy)-2-oxoethyl)thiazol-4-yl)pyridyl bromide salt]
MIC [1]: 32 µg/mL | MIC [2]: 32 µg/mL | MIC [3]: 64 µg/mL | MIC [4]: 64 µg/mL
